Measured values taken from the supplement of paper PMC11061612.

Columns and labels:
[1] = compound: CC(C)n1c(=O)n(C)c2cnc3cc(F)c(-c4ccc(OCCCN5CCCCC5)nc4)cc3c21 [AZD1390]; conditions: max 0.3 µM
How it was run: (§1)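 Viability was measured with CellTiter-Glo 2.0 luminescence after 72 hours of dosing at a final DMSO of typically 0.2%, and scaled between blank-well and DMSO-well means. Beforehand, cancer cell lines sat 24 hours at 37°C and 5% CO2 in 1536-well plates in 7.5 μl DMEM/F12 or RPMI with 10% FBS. A non-linear mixed effects model fitted two-parameter logistic curves to the dose responses. The single-agent IC50 comes from these fits.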

[2] = compound: Cc1c2c(nn1C)CSCc1cc(n(C)n1)CSc1cc(c3ccccc3c1)OCCCc1c(C(=O)O)n(C)c3c-2c(Cl)ccc13 [AZD5991]; conditions: max 1 µM
How it was run: as §1

[3] = compound: COc1cc(Nc2ncc3c(n2)-c2ccc(Cl)cc2C(c2c(F)cccc2OC)=NC3)ccc1C(=O)O [Alisertib]; conditions: max 10 µM
How it was run: as §1

[4] = compound: CS(=O)(=O)CCNCc1ccc(-c2ccc3ncnc(Nc4ccc(OCc5cccc(F)c5)c(Cl)c4)c3c2)o1 [Lapatinib]; conditions: max 10 µM
How it was run: as §1

[5] = compound: Cc1cc2ncnn2cc1Nc1ncc2c(n1)n(C1CCOCC1)c(=O)n2C [AZD7648]; conditions: max 10 µM
How it was run: as §1

[6] = compound: C[C@@H](c1ccc2nccn2c1)n1nnc2ncc(-c3cnn(C)c3)nc21 [Savolitinib]; conditions: max 1 µM
How it was run: as §1

[7] = compound: COc1nnc2ccc(N3CCC(c4ccc(OCCN5CCN(C)C(=O)[C@H]5C)cc4)CC3)nn12 [AZD5153]; conditions: max 1 µM
How it was run: as §1

[8] = compound: CCN(CCO)CCCOc1ccc2c(Nc3cc(CC(=O)Nc4cccc(F)c4)[nH]n3)ncnc2c1 [AZD2811]; conditions: max 1 µM
How it was run: as §1

[9] = compound: C=CCn1c(=O)c2cnc(Nc3ccc(N4CCN(C)CC4)cc3)nc2n1-c1cccc(C(C)(C)O)n1 [AZD1775]
How it was run: as §1

[10] = compound: CN(C)CCCOc1ccc(-c2ccc3ncc4c(c3c2)n(C2CCOCC2)c(=O)n4C)cn1 [AZD0156]
How it was run: as §1

[11] = compound: Cc1nc(-c2cn3c(n2)-c2ccc(-c4cnn(C(C)(C)C(N)=O)c4)cc2OCC3)n(C(C)C)n1 [Taselisib]; conditions: max 10 µM
How it was run: as §1

[12] = compound: CC1=CN2[C@@H](C1)C=NC3=CC(=C(C=C3C2=O)OC)OCCCCCOC4=C(C=C5C(=C4)N=C[C@@H]6CC(=CN6C5=O)C)OC [SG3199]; conditions: max 0.001 µM
How it was run: as §1

[13] = compound: CC1=C(C(=CC=C1)Cl)NC(=O)C2=CN=C(S2)NC3=CC(=NC(=N3)C)N4CCN(CC4)CCO [Dasatinib]; conditions: max 2 µM
How it was run: as §1

[14] = compound: COc1cccc(OCCCN)c1-c1cc(Nc2cnc(C#N)cn2)n[nH]1 [Prexasertib]; conditions: max 1 µM
How it was run: as §1

[15] = compound: O=C(c1cc(Cc2n[nH]c(=O)c3ccccc23)ccc1F)N1CCN(C(=O)C2CC2)CC1 [Olaparib]; conditions: max 10 µM
How it was run: as §1

[16] = compound: C[C@@H](Oc1cc(-c2cnn(C3CCNCC3)c2)cnc1N)c1c(Cl)ccc(F)c1Cl [Crizotinib]; conditions: max 10 µM
How it was run: as §1

[17] = compound: CN(CC[C@H](CSC1=CC=CC=C1)NC2=C(C=C(C=C2)S(=O)(=O)NC(=O)C3=CC=C(C=C3)N4CCC(CC4)[C@H](C5=CC=CC=C5C6=CC=C(C=C6)Cl)O)S(=O)(=O)C(F)(F)F)CCO [AZD4320]; conditions: max 1 µM
How it was run: as §1

[18] = compound: CCc1c2c(nc3ccc(O)cc13)-c1cc3c(c(=O)n1C2)COC(=O)[C@]3(O)CC [SN-38]; conditions: max 0.3 µM
How it was run: as §1

[19] = compound: COc1cccc2c1C(=O)c1c(O)c3c(c(O)c1C2=O)C[C@@](O)(C(=O)CO)C[C@@H]3O[C@H]1C[C@H](N)[C@H](O)[C@H](C)O1 [Doxorubicin]; conditions: max 1 µM
How it was run: as §1

[20] = compound: CC1(C)CCC(CN2CCN(c3ccc(C(=O)NS(=O)(=O)c4ccc(NCC5CCOCC5)c([N+](=O)[O-])c4)c(Oc4cnc5[nH]ccc5c4)c3)CC2)=C(c2ccc(Cl)cc2)C1 [Venetoclax]; conditions: max 1 µM
How it was run: as §1

[21] = compound: C1CN(CCC1(C(=O)N[C@@H](CCO)C2=CC=C(C=C2)Cl)N)C3=NC=NC4=C3C=CN4 [Capivasertib]; conditions: max 10 µM
How it was run: as §1

[22] = compound: CC(=O)c1c(C)c2cnc(Nc3ccc(N4CCNCC4)cn3)nc2n(C2CCCC2)c1=O [Palbociclib]; conditions: max 10 µM
How it was run: as §1

[23] = compound: C[C@@H]1COCCN1C2=NC(=NC(=C2)C3(CC3)[S@](=N)(=O)C)C4=C5C=CNC5=NC=C4 [AZD6738]; conditions: max 10 µM
How it was run: as §1

[24] = compound: C[C@@H](Nc1cc(F)cc(F)c1)c1cc(C(=O)N(C)C)cc2c(=O)cc(N3CCOCC3)oc12 [AZD8186]; conditions: max 3 µM
How it was run: as §1

[25] = compound: CC(=O)Nc1cccc(-n2c(=O)n(C3CC3)c(=O)c3c(Nc4ccc(I)cc4F)n(C)c(=O)c(C)c32)c1 [Trametinib]; conditions: max 1 µM
How it was run: as §1

[26] = compound: Cn1cnc2c(F)c(Nc3ccc(Br)cc3Cl)c(C(=O)NOCCO)cc21 [Selumetinib]; conditions: max 10 µM
How it was run: as §1

[27] = compound: COc1cc2ncnc(Nc3ccc(F)c(Cl)c3)c2cc1OCCCN1CCOCC1 [Gefitinib]; conditions: max 10 µM
How it was run: as §1

| Cell Line | IC50, cell viability 72 h [1] | IC50, cell viability 72 h [2] | IC50, cell viability 72 h [3] | IC50, cell viability 72 h [4] | IC50, cell viability 72 h [5] | IC50, cell viability 72 h [6] | IC50, cell viability 72 h [7] | IC50, cell viability 72 h [8] | IC50, cell viability 72 h ([9]; max 3 µM) | IC50, cell viability 72 h ([10]; max 3 µM) | IC50, cell viability 72 h [11] | IC50, cell viability 72 h [12] | IC50, cell viability 72 h [13] | IC50, cell viability 72 h [14] | IC50, cell viability 72 h [15] | IC50, cell viability 72 h [16] | IC50, cell viability 72 h [17] | IC50, cell viability 72 h [18] | IC50, cell viability 72 h [19] | IC50, cell viability 72 h [20] | IC50, cell viability 72 h [21] | IC50, cell viability 72 h [22] | IC50, cell viability 72 h [23] | IC50, cell viability 72 h [24] | IC50, cell viability 72 h [25] | IC50, cell viability 72 h [26] | IC50, cell viability 72 h [27] | IC50, cell viability 72 h ([9]; max 1 µM) | IC50, cell viability 72 h ([10]; max 1 µM) |
| --- | --- | --- | --- | --- | --- | --- | --- | --- | --- | --- | --- | --- | --- | --- | --- | --- | --- | --- | --- | --- | --- | --- | --- | --- | --- | --- | --- | --- | --- |
| A704 (Kidney Carcinoma) | > 300 nM | > 1000 nM | 5350 nM | 8790 nM | > 10000 nM | > 1000 nM | 538 nM | > 1000 nM | 2510 nM | > 3000 nM | > 10000 nM | > 1 nM | 110 nM | > 1000 nM | > 10000 nM | > 10000 nM | > 1000 nM | 274 nM | > 1000 nM | > 1000 nM | > 10000 nM | > 10000 nM | > 10000 nM | 1540 nM | > 1000 nM | > 10000 nM | > 10000 nM | – | – |
| BT-20 (Breast Carcinoma) | > 300 nM | > 1000 nM | 9860 nM | > 10000 nM | > 10000 nM | > 1000 nM | > 1000 nM | > 1000 nM | 1440 nM | > 3000 nM | 297 nM | > 1 nM | > 2000 nM | 319 nM | > 10000 nM | > 10000 nM | > 1000 nM | 57.7 nM | > 1000 nM | > 1000 nM | 1210 nM | > 10000 nM | > 10000 nM | > 3000 nM | 202 nM | > 10000 nM | > 10000 nM | – | – |
| BV-173 (Chronic Myelogenous Leukemia) | > 300 nM | 30.6 nM | 38.5 nM | 4020 nM | > 10000 nM | > 1000 nM | 65.1 nM | 6.95 nM | 294 nM | > 3000 nM | > 10000 nM | > 1 nM | < 2 nM | 4.79 nM | 3250 nM | 497 nM | 5.26 nM | 1.42 nM | 46.5 nM | 50.4 nM | 4140 nM | 3940 nM | 260 nM | > 3000 nM | 57.2 nM | 2330 nM | > 10000 nM | – | – |
| DG-75 (Burkitt's Lymphoma) | > 300 nM | > 1000 nM | > 10000 nM | 8870 nM | > 10000 nM | > 1000 nM | 24.4 nM | > 1000 nM | 424 nM | > 3000 nM | > 10000 nM | > 1 nM | > 2000 nM | 33.5 nM | > 10000 nM | 6980 nM | > 1000 nM | 38.7 nM | 453 nM | > 1000 nM | > 10000 nM | 1250 nM | 1390 nM | > 3000 nM | > 1000 nM | > 10000 nM | > 10000 nM | – | – |
| EBC-1 (Squamous Cell Lung Carcinoma) | > 300 nM | > 1000 nM | > 10000 nM | > 10000 nM | > 10000 nM | 4.07 nM | 80.5 nM | > 1000 nM | 2940 nM | > 3000 nM | 5250 nM | > 1 nM | > 2000 nM | 596 nM | > 10000 nM | 59 nM | 585 nM | 3.58 nM | > 1000 nM | > 1000 nM | > 10000 nM | > 10000 nM | > 10000 nM | > 3000 nM | 23.9 nM | 1100 nM | > 10000 nM | – | – |
| EMC-BAC-2 (Non-Small Cell Lung Carcinoma) | > 300 nM | 873 nM | 5480 nM | > 10000 nM | > 10000 nM | > 1000 nM | 220 nM | > 1000 nM | > 3000 nM | > 3000 nM | 2320 nM | > 1 nM | 995 nM | > 1000 nM | > 10000 nM | > 10000 nM | > 1000 nM | 169 nM | 959 nM | > 1000 nM | > 10000 nM | > 10000 nM | > 10000 nM | > 3000 nM | 198 nM | > 10000 nM | > 10000 nM | – | – |
| EW-13 (Ewing's Sarcoma) | > 300 nM | > 1000 nM | > 10000 nM | > 10000 nM | > 10000 nM | > 1000 nM | > 1000 nM | > 1000 nM | – | – | > 10000 nM | > 1 nM | > 2000 nM | 829 nM | > 10000 nM | > 10000 nM | 270 nM | 8.64 nM | 467 nM | > 1000 nM | > 10000 nM | > 10000 nM | > 10000 nM | > 3000 nM | > 1000 nM | > 10000 nM | > 10000 nM | > 1000 nM | > 1000 nM |
| EW-18 (Ewing's Sarcoma) | > 300 nM | 60 nM | 853 nM | > 10000 nM | > 10000 nM | > 1000 nM | 376 nM | 131 nM | 359 nM | > 3000 nM | 1240 nM | > 1 nM | > 2000 nM | 43.2 nM | > 10000 nM | 1850 nM | 45.4 nM | 106 nM | > 1000 nM | > 1000 nM | 2440 nM | > 10000 nM | 3990 nM | > 3000 nM | > 1000 nM | > 10000 nM | > 10000 nM | – | – |
